Results on six compounds are retold here after PMC7150796 (Viruses, 2020).

The subject of data set [1] is rZIKV-ZsGreen. As to the kind of experiment: microbe, parasite or virus in culture. To be noted: 24 h; for EC50 / EC90: Zika virus, Vero; for EC50: read-out: Inhibition Efficacy EC50; for EC90: read-out: Inhibition Efficacy EC90; for Inhibition Efficacy EC50 / Inhibition Efficacy EC90: rZIKV-ZsGreen, Vero B4 cells, inhibition of ZsGreen expression, highest concentration 100 µM. The data set is classed as cell-based, Zika virus.

Data set [2] can be described thus: Resazurin cell viability (cell toxicity) assay. The conditions noted are these: African green monkey. In general terms: Resazurin is reduced to fluorescent resorufin, in cell work by metabolically active cells.
For data set [3], the system named is wt ZIKV African lineage (MR766, Uganda strain). Briefly: Plaque inhibition assay, wt ZIKV African lineage. Format: cell-based, Zika virus. To be noted: 2.5 µM, Vero B4 cells, 4 days.
For data set [4], the system named is two wt ZIKV lineages, Asian and African. The data set is classed as cell-based, Zika virus. The conditions noted are these: 2.5 µM.
Data set [5] deals with ZIKV. Briefly: Focus-forming assay, ZIKV. The conditions noted are these: MOI 0.1, Vero B4, 24 hpi. The data set is classed as cell-based, Zika virus.
In data set [6] the test system is TBEV. Format: cell-based, tick-borne encephalitis virus. The conditions noted are these: MOI 0.1, Vero B4, 24 hpi.
For data set [7], the system named is WNV. As to the kind of experiment: Focus-forming assay, WNV. The data set is classed as cell-based, West Nile virus.
The subject of data set [8] is JEV. Briefly: Focus-forming assay, JEV. The data set is classed as cell-based, Japanese encephalitis virus.
For data set [9], the system named is YFV. Format: cell-based, yellow fever virus. To be noted: MOI 0.1, Vero B4, 48 hpi.
Data set [10] relates to DENV2. Briefly: Focus-forming assay, DENV2. The data set is classed as cell-based, dengue virus type 2.
For data set [11], the system named is rZIKV-ZsGreen. Briefly: Time of drug addition assay.
Data set [12] concerns wt ZIKV Asian lineage (BeH819015, Brazil strain). Briefly: Plaque inhibition assay, wt ZIKV Asian lineage. To be noted: Vero B4 cells, 4 days.
Data set [13] concerns ZIKV. To be noted: ref 40 (Lei Cai et al.); read-out: EC50 against ZIKV; cited from earlier work.
Data set [14] can be described thus: in vitro. The conditions noted are these: African green monkey.

SMILES strings stand for the structures. “Also recorded” adds a separate entry of the source. Where two headings read alike, the source gives them in different places.

Turning to `O=C(Nc1ccccc1C(=O)Nc1ccccc1C(=O)O)c1ccccc1` [Benzavir-1, 2-{[2-(benzoylamino)benzoyl]amino}-benzoic acid], in [1], the 50% effective concentration (EC50) – broadly, the concentration giving half of the maximal effect – was found to be 3 ± 0.1 µM and the concentration for an effect of 90% (EC90) (usually the point of the concentration-response curve where the effect stands at 90%) came out at 3.3 ± 0.1 µM. Besides, in [2], the viability (commonly a read-out of living cells in per cent, often relative to untreated cells) at 24 h, 25 µM amounted to 98.8 ± 3.4%; the viability at 24 h, 50 µM came to 88.3 ± 1.4%; the viability at 24 h, 100 µM came to 88.1 ± 2.1%.
For `O=C(Nc1cc(F)c(F)cc1C(=O)Nc1ccccc1C(=O)O)c1ccccc1F` [Benzavir-2, 2-[4,5-Difluoro-2-(2-fluorobenzoylamino)-benzoylamino]benzoic acid], the EC50 in [1] stood at 0.8 ± 0.1 µM. For the same compound, the 90% effect concentration (EC90) in data set [1] is 1.2 ± 0.3 µM. Moreover, the “reduction of plaque formation” value is recorded as 94% in [3] and 88% in [12] (2.5 µM, Asian lineage). The “CPE in cells infected with progeny virus from treated cells” value in data set [4] (day 2 post-progeny virus transfer) is reported as “minor CPE”. The “plaque formation in cells infected with progeny virus from treated cells” value in data set [4] (day 4, crystal violet) is listed as “only a few visible plaques”. Moreover, the viral titer reduction is recorded as 1.0 × 10^3 fold in data set [5] (benzavir-2 2.5 µM); 7.5 × 10^3 fold in [6] (benzavir-2 2.5 µM); 2.2 × 10^4 fold in data set [7]; 7.5 × 10^3 fold in [8]; 1.5 × 10^3 fold in [9] (benzavir-2 2.5 µM); 5.6 × 10^4 fold in data set [10]. For the same compound, the “inhibitory effect, time of addition” value in data set [11] (10 µM added at 2–4 h post-infection, read 24 h) was “most pronounced”; in data set [11] (10 µM, binding and entry steps (0–2 h), read 24 h), “less affected”; in data set [11] (10 µM, later time-points post-infection, read 24 h) it was “less inhibition”; in [11] (10 µM, pre-incubation prior to infection (−2 h), compared to 2–4 h), “much lower”. Further, in data set [2], the viability at 24 h, 25 µM was 100 ± 1.8%. Also, the viability at 24 h, 50 µM in data set [2] is 96.8 ± 0.6%. In data set [2], the viability at 24 h, 100 µM was determined as 94.3 ± 1.8%. For the same compound, in [12] (benzavir-2 from 20 to 0.6 µM), the “plaque formation, dose-dependent” value was “significant reduction of plaque formation at all applied concentrations”.
For `CC(C)(C)C(=O)Nc1cc(F)c(F)cc1C(=O)Nc1ccccc1C(=O)O` [Compound 17d], in data set [1], the “Inhibition Efficacy EC50” value is given as “no antiviral activity; also recorded: Not achieved” and the “Inhibition Efficacy EC90” value is recorded as “Not achieved”. Moreover, in data set [2], the viability at 24 h, 25 µM amounted to 105.1 ± 0.1%; the viability at 24 h, 50 µM was determined as 106 ± 4.2%; the viability at 24 h, 100 µM amounted to 104.9 ± 0.9%.
Regarding `O=C(Nc1cc(Cl)ccc1C(=O)Nc1ccccc1C(=O)O)c1ccccc1F` [Compound 35f], in data set [1], the EC50 turned out to be 6.1 ± 1.4 µM and the 90% effect concentration (EC90) amounted to 14.9 ± 0.9 µM. Further, in [2], the viability at 24 h, 25 µM is 105 ± 5%; the viability at 24 h, 50 µM amounted to 96.5 ± 3.7%; the viability at 24 h, 100 µM was 92.1 ± 3.9%.
On to `NC(=O)c1nc(F)c[nH]c1=O` [Favipiravir, reference compound], for which, in data set [1], the “Inhibition Efficacy EC50” value is recorded as “Not achieved” and the “Inhibition Efficacy EC90” value is listed as “Not achieved”. Moreover, the “Inhibition Efficacy EC50” value in data set [1] (listed as favipiravir) was “no antiviral activity”. The EC50 in data set [13] was 111 ± 13.1 µM. Further, in [2] (Vero B4 cells), the viability at 24 h, 25 µM worked out at 97.4 ± 0.7%; the viability at 24 h, 50 µM is 95 ± 1.4%; the viability at 24 h, 100 µM worked out at 97.9 ± 2.2%.
Take `NC(=O)c1ncn([C@@H]2O[C@H](CO)[C@@H](O)[C@H]2O)n1` [Ribavirin, reference compound]: the EC50 in data set [1] amounted to 45.5 ± 13.5 µM. In addition, in data set [1], the EC90 turned out to be 114 ± 18 µM. Moreover, the viral titer reduction in [5] (ribavirin 50 µM) is given as 1.0 × 10^1 fold; in [6] (ribavirin 50 µM) it was 1.2 × 10^1 fold; in data set [7], “no significant activity”; in [8], “no significant activity”; in [9] (ribavirin 50 µM) it was 0.9 × 10^1 fold; in [10] it was 1.1 × 10^1 fold. For the same compound, in data set [14], the viability at 24 h, 25 µM was 96 ± 1%. Further, the viability at 24 h, 50 µM in data set [14] was found to be 95 ± 2.8%. In addition, the viability at 24 h, 100 µM in data set [14] was 93.5 ± 3.4%. For the same compound, in data set [12] (ribavirin from 200 to 6.3 µM), the “plaque formation, dose-dependent” value is given as “only showed inhibition of plaque formation at 200 µM”.
